The values below come from ChEMBL document CHEMBL3734677, “EVALUATION OF AROMATIC 6-SUBSTITUTED THIENOPYRIMIDINES AS SCAFFOLDS AGAINST PARASITES THAT CAUSE TRYPANOSOMIASIS, LEISHMANIASIS, AND MALARIA” (Medchemcomm, 2015).

Bounds are passed on as bounds.

The nature of data set [1]: (§1) Cytotoxicity against human HepG2 cells by MTT assay. It is filed as cell-based. The following applies: HepG2 cells, read-out: TC50 (the source's name). (In general: Tetrazolium assays rely on reduction of a dye to a coloured formazan, in cell work by metabolically active cells.)
Data set [2] concerns Leishmania major. Briefly: Antiparasitic activity against Leishmania major amastigotes. It is filed as functional, organism-based. Conditions: Leishmania major; read-out: EC50.
Data set [3] concerns Leishmania major. Briefly: Antiparasitic activity against Leishmania major promastigotes. It is filed as functional, organism-based. Conditions: Leishmania major; read-out: EC50.
Data set [4] deals with Trypanosoma brucei. Kind of data set: Antiparasitic activity against Trypanosoma brucei after 48 hrs by cytometry. It is filed as functional, organism-based.
Data set [5] concerns Trypanosoma cruzi. Briefly: Antiparasitic activity against Trypanosoma cruzi at 10 uM. It is filed as functional.
In data set [6] the test system is Plasmodium falciparum. Kind of data set: Antiparasitic activity against Plasmodium falciparum D6. It is filed as functional, organism-based. The following applies: Plasmodium falciparum, D6; read-out: EC50.
The test system of data set [7] is HepG2. The data set is described as §1. It is filed as cell-based. Conditions: hepg2.
The nature of data set [8]: Selectivity ratio, ratio of EC50 for Plasmodium falciparum W2 to EC50 for Plasmodium falciparum D6. It is filed as functional.
The nature of data set [9]: Selectivity ratio, ratio of EC50 for Plasmodium falciparum C235 to EC50 for Plasmodium falciparum D6. It is filed as functional.
A short description of data set [10]: Plasma protein binding in human. It is filed as ADME, cell-free.
A short description of data set [11]: Aqueous solubility of compound. It is filed as physicochemical. The following applies: buffer.
The nature of data set [12]: Metabolic stability in human microsomes. It is filed as ADME, Microsome.
Data set [13] deals with Trypanosoma cruzi. Briefly: Antiparasitic activity against Trypanosoma cruzi. It is filed as functional, organism-based.
A short description of data set [14]: Metabolic stability in rat Hepatocytes. It is filed as ADME, cell-based, Hepatocyte.
For data set [15], the system named is Trypanosoma brucei brucei. Kind of data set: Antiparasitic activity against bloodstream Trypanosoma brucei bruei CA427 after 48 hrs by cytometry. It is filed as functional, organism-based. The following applies: CA427, 48 h.
Data set [16] concerns Trypanosoma brucei. Briefly: Antiparasitic activity against Trypanosoma brucei at 5 uM after 48 hrs by cytometry. It is filed as functional.

What is called EC50 is the concentration at which the effect is half-maximal. As a reminder, the inhibition is the percentage by which the read-out fell short of the control. Take `Fc1cccc(COc2ccc(Nc3ncnc4sc(-c5ccccc5)cc34)cc2Cl)c1`: the CC50 in data set [1] worked out at 10 µM. The EC50 in [2] was greater than 15 µM; in data set [3], greater than 20 µM; in [4] it was 1.7 µM; in [6] it was greater than 20 µM. The molecule also yielded an inhibition at 10 µM in data set [5] of 42%.

As a reminder, the solubility is the concentration that dissolves in the medium under given conditions. For `Cc1cc(-c2cc3ncnc(Nc4ccc(OCc5cccc(F)c5)c(Cl)c4)c3s2)cnc1N1CCOCC1`, the Activity entry in data set [7] is “Non-toxic”. For the same molecule, the Ratio EC50 in [8] and in data set [9] was less than 3 each time. Moreover, the EC50 in data set [2] is greater than 3 µM; in data set [3] it was greater than 3 µM; in [4], 0.084 µM; in [13], 3.3 µM; in data set [6], 0.23 µM. The same molecule registered a PPB in data set [10] greater than 99%. Besides, the solubility in data set [11] is less than 1 µM. Further, the Stability result in [12] and in [14] was “Stable” throughout.

`Fc1cccc(COc2ccc(Nc3ncnc4ccc(-c5ccc(CN6CCOCC6)cc5)cc34)cc2Cl)c1`: in data set [1], the CC50 was found to be 12.9 µM. Also, the Ratio EC50 in data set [8] and in data set [9] was less than 3 each time. Moreover, the EC50 was determined as 5.91 µM in [2]; 2.74 µM in data set [3]; 1 µM in [4]; 0.6 µM in data set [13]; 0.063 µM in data set [6].

In the case of `Fc1cccc(COc2ccc(Nc3ncnc4cc(C#C[C@@H]5CCCN5)sc34)cc2Cl)c1`, in data set [15], it took 0.26 µM to reach a half-maximal effect (EC50).

For `CS(=O)(=O)CCNCc1ccc(-c2ccc3ncnc(Nc4ccc(OCc5cccc(F)c5)c(Cl)c4)c3c2)o1` [LAPATINIB], the CC50 in data set [1] was greater than 35 µM.

As to `Fc1cccc(COc2ccc(Nc3ncnc4ccc(-c5cccc(N6CCOCC6)c5)cc34)cc2Cl)c1`, the Activity result in data set [7] is reported as “Non-toxic”. For the same molecule, the EC50 in data set [2] was 7.98 µM. This molecule returned a PPB in data set [10] greater than 99%. This molecule displayed a solubility in data set [11] of less than 1 µM. The Stability result in [12] and in data set [14] was “Stable” throughout.

On to `Fc1cccc(COc2ccc(Nc3ncnc4sc(-c5ccc(CN6CCOCC6)cc5)cc34)cc2Cl)c1`, for which the Activity entry in [7] is listed as “Non-toxic”. The Ratio EC50 in data set [8] and in [9] was less than 3 in each case. The EC50 in data set [2] is 4.2 µM; in data set [3] it was greater than 20 µM; in [13], 1.7 µM; in [6] it was 0.089 µM. The inhibition at 5 µM in data set [16] was found to be 60%.

Consider `Fc1cccc(COc2ccc(Nc3ncnc4ccc(-c5ccc(N6CCOCC6)cc5)cc34)cc2Cl)c1`, for which the CC50 in data set [1] was determined as 9.6 µM. Moreover, the EC50 in data set [2] was greater than 15 µM; in data set [3], 4.4 µM; in [4], 1.9 µM; in data set [6] it was 0.27 µM. This molecule registered an inhibition at 10 µM in [5] of 10.1%.

For `Fc1cccc(COc2ccc(Nc3ncnc4cc(-c5cc6ccccc6s5)sc34)cc2Cl)c1`, the Activity entry in [7] is “Non-toxic”. Besides, the EC50 is greater than 15 µM in data set [2], greater than 20 µM in [3], greater than 50 µM in data set [13] and greater than 15 µM in data set [6]. For the same molecule, in data set [16], testing at 5 µM gave an inhibition of 8%.

On to `Fc1cccc(COc2ccc(Nc3ncnc4ccc(-c5ccccc5)cc34)cc2Cl)c1`, for which the CC50 in data set [1] came to 4.9 µM. Besides, the EC50 in data set [2] was greater than 15 µM; in data set [3], 4.05 µM; in [4] it was 3.9 µM; in data set [13], 1.8 µM; in data set [6], 0.79 µM.
